# Test results published in patent US9169205B2, “Pyrrolidine derivatives, pharmaceutical compositions and uses thereof” (Boehringer Ingelheim International GmbH, priority 2012, dated 2015).
# pIC50: −log10 of the molar value.
# Target: human ACC2 (Homo sapiens (Human), UniProt O00763)
# Experiment: ACC2 assay (spectrophotometric 384 well assay, NADH-linked kinetic method)
# Assay type: biochemical
# Conditions: hACC2 construct lacking 128 N-terminal amino acids, 25° C., 340 nm
# Method: Spectrophotometric 384 Well Assay
# Malonyl CoA formation by acetyl CoA carboxylases is stoichometrically linked to the consumption of ATP. ACC2 activity is measured in a NADH-linked kinetic method measuring ADP generated during the ACC reaction using a coupled lactate dehydrogenase/pyruvate kinase reaction.
# The protein is then expressed in insect cells using a baculoviral expression system. Protein purification is performed by anion exchange.
# All compounds are dissolved in dimethyl sulfoxide (DMSO) to a concentration of 10 mM.
# The enzymatic reaction is then started by addition of a mixture of NADH, acetyl Coenzyme A (both 200 μM f.c.) and ATP (500 uM f.c.). The decrease of the optical density (slope S) is then determined at 25° C. at a wavelength of 340 nm over 15 minutes in a spectrophotometric reader.
# Each assay microtiter plate contains wells with vehicle instead of compound as controls for the non-inhibited enzyme (100% CTL; ‘HIGH’) and wells without acetyl-CoA as controls for non-specific NADH degradation (0% CTL; ‘LOW’).
# Sequence of human ACC2 (O00763 129-2458): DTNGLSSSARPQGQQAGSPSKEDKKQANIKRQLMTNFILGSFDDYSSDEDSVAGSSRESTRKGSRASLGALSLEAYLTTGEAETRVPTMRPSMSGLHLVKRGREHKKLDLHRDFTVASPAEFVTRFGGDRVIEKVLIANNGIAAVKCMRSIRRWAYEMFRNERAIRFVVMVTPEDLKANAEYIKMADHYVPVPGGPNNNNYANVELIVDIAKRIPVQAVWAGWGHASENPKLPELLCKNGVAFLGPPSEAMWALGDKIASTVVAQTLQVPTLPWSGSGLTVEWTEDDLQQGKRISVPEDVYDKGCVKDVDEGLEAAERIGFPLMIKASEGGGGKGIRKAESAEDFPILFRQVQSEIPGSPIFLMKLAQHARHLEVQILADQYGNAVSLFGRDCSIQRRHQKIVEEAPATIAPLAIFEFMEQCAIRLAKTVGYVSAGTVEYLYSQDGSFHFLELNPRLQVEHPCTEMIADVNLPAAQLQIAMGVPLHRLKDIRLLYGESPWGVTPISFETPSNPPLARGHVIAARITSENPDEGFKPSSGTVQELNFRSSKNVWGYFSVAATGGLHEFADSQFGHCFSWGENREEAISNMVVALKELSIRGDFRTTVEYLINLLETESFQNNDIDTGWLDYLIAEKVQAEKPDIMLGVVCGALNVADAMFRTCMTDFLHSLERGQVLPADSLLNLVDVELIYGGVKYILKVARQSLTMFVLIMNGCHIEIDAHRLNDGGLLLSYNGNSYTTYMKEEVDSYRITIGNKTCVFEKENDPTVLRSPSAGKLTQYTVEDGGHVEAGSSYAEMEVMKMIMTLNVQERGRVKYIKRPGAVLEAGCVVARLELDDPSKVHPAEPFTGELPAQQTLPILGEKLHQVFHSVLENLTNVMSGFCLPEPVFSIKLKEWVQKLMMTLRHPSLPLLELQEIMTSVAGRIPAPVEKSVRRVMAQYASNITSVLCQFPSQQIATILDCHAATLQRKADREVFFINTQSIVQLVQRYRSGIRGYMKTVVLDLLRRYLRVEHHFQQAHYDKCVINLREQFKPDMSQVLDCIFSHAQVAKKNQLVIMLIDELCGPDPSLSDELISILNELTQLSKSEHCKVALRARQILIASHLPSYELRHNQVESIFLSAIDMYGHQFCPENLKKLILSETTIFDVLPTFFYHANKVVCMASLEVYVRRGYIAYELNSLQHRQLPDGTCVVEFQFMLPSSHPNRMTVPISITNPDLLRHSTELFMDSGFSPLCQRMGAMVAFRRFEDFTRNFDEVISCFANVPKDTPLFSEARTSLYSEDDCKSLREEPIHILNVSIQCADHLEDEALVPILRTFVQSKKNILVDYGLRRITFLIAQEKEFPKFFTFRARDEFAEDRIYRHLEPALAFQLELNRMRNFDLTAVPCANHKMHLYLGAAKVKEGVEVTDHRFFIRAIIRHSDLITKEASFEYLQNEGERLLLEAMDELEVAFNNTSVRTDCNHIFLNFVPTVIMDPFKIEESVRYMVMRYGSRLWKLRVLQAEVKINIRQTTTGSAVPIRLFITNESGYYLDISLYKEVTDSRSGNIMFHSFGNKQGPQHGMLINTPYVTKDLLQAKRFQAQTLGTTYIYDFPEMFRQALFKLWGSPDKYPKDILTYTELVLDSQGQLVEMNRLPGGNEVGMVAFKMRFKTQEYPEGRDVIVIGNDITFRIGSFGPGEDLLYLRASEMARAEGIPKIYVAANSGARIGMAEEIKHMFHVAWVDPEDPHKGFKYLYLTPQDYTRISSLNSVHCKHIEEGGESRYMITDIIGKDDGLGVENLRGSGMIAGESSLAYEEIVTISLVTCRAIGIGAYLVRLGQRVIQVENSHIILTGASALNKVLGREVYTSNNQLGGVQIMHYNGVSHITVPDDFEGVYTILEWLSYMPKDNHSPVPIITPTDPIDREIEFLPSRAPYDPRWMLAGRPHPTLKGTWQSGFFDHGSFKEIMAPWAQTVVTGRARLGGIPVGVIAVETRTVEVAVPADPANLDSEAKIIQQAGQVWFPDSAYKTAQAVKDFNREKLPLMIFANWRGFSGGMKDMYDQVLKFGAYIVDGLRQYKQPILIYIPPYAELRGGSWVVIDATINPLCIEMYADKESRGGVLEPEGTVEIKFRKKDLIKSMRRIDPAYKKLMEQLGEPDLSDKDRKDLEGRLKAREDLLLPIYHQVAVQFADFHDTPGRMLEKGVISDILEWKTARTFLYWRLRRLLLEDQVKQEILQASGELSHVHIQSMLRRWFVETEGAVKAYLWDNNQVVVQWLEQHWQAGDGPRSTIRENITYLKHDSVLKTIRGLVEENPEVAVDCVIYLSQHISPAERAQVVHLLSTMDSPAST
row,SMILES,pIC50
1,CC(=O)N[C@@H](C)c1ccc(OC2CCN(c3ccc(OCC4CC(F)(F)C4)cc3)C2)cc1 (stereo partly shown) [Example 1.96],7.21
2,Cc1cc(OC2CC2)ccc1N1CC[C@@H](Oc2ccc([C@H](C)NC(=O)c3cn[nH]c3)cc2)C1 [Example 2.64],6.45
3,CC(=O)Nc1cccc(C(=O)N[C@@H](C)c2ccc(O[C@@H]3CCN(c4ccc(OCC5CC5)cc4)C3)cc2)c1C [Example 2.4],6.29
4,CCC(C)Oc1ccc(N2CCC(Oc3ccc([C@H](C)NC(C)=O)cc3)C2)cc1 (stereo partly shown) [Example 4.3],6.77
5,CC(=O)N[C@H]1C[C@@H](C(=O)N[C@@H](C)c2ccc(O[C@@H]3CCN(c4ccc(OCC5CC5)cc4)C3)cc2)NC1=O [Example 2.6],6.15
6,C[C@H](NC(=O)Cc1cc[nH]c1)c1ccc(O[C@@H]2CCN(c3ccc(OCC4CC4)cc3)C2)cc1 [Example 2.12],6.40
7,CC(=O)N[C@@H](C)c1ccc(O[C@H]2CCN(c3ccc(OC4CC4)cc3C)C2)cc1 [Example 1.104],6.44
8,CCCOc1ccc(N2CCC(Oc3ccc([C@H](C)NC(C)=O)cc3)C2)cc1 (stereo partly shown) [Example 1.8],6.85
9,CCOc1ccc(N2CC[C@@H](Oc3ccc([C@H](C)NC(=O)c4sc(NC(=O)COCc5ccccc5)nc4C)cc3)C2)cc1 [Example 2.54],7.35
10,Cc1[nH]ncc1C(=O)N[C@@H](C)c1ccc(O[C@@H]2CCN(c3ccc(OCC4CC4)cc3)C2)cc1 [Example 2.26],7.33
11,CO[C@H]1CN(c2ccc(OCC3CC3)cc2)CC1Oc1ccc([C@H](C)NC(C)=O)cc1 (stereo partly shown) [Example 1.45],6.97
12,C[C@H](NC(=O)c1cnn(C)c1Cl)c1ccc(O[C@@H]2CCN(c3ccc(OCC4CC4)cc3)C2)cc1 [Example 2.44],7.26
13,CC(=O)N[C@@H](C)c1ccc(OC2CCN(c3ccc4c(c3)OCC(C)(C)CO4)C2)cc1 (stereo partly shown) [Example 1.18],6.67
14,CC(=O)N[C@@H](C)c1ccc(OC2CCN(c3ccc(OC4CCC4)cc3)C2)cc1 (stereo partly shown) [Example 1.14],7.44
15,COc1cc(OC2CC2)ccc1N1CCC(Oc2ccc([C@H](C)NC(C)=O)cc2)C1 (stereo partly shown) [Example 1.43],6.56
16,CCCOc1ccc(N2CCC(Oc3ccc([C@H](C)NC(C)=O)cc3)C2)c(C)c1 (stereo partly shown) [Example 1.86],7.19
17,C[C@H](NC(=O)C(F)F)c1ccc(O[C@@H]2CCN(c3ccc(OCC4CC4)cc3)C2)cc1 [Example 2.25],7.42
18,CC(=O)N[C@@H](C)c1ccc(OC2CCN(c3cc(Cl)ccc3Cl)C2)cc1 (stereo partly shown) [Example 1.58],6.45
19,Cc1oncc1C(=O)N[C@@H](C)c1ccc(O[C@@H]2CCN(c3ccc(OCC4CC4)cc3)C2)cc1 [Example 2.21],7.35

row,SMILES,pIC50
1,CCOC(=O)C1(Oc2ccc(N3CCC(Oc4ccc([C@H](C)NC(C)=O)cc4)C3)cc2)CCC1 (stereo partly shown) [Example 4.2],6.51
2,CC(=O)N[C@@H](C)c1ccc(OC2CCN(c3ccc(OCCC(F)F)cc3)C2)nc1 (stereo partly shown) [Example 1.102],6.67
3,CC(=O)N[C@@H](C)c1ccc(OC2CCN(c3cc(Cl)ccc3C)C2)cc1 (stereo partly shown) [Example 1.60],6.38
4,CC(=O)Nc1cc(C(=O)N[C@@H](C)c2ccc(OC3CCN(c4ccc(OCC5CC5)cc4)C3)cc2)on1 (stereo partly shown) [Example 8.2],6.44
5,Cc1cc(C(=O)N[C@@H](C)c2ccc(O[C@@H]3CCN(c4ccc(OCC5CC5)cc4)C3)cc2)no1 [Example 2.15],6.50
6,CC(=O)N[C@@H](C)c1ccc(OC2CCN(c3ccc(OCC(F)(F)C(F)F)cc3)C2)cc1 (stereo partly shown) [Example 4.7],6.20
7,CCOc1cccc(N2CC[C@H](Oc3ccc([C@H](C)NC(C)=O)cc3)C2)c1 [Example 1.4],6.29
8,CC(=O)N[C@@H](C)c1ccc(OC2CCN(c3ccc(OCC4CC4)cc3C)C2)cc1 (stereo partly shown) [Example 1.84],7.16
9,CC(=O)N[C@@H](C)c1ccc(OC2CCN(c3ccc(C)cc3F)C2)cc1 (stereo partly shown) [Example 1.39],6.10
10,CCCOc1ccc(N2CCC(Oc3ccc([C@H](C)NC(C)=O)cc3)C2)c(Cl)c1 (stereo partly shown) [Example 1.29],7.22
11,COCCOC1CN(c2ccc(OCC3CC3)cc2)CC1Oc1ccc([C@H](C)NC(C)=O)cc1 (stereo partly shown) [Example 1.77],6.13
12,COc1ccc(N2CCC(Oc3ccc([C@H](C)NC(C)=O)cc3)C2)cc1C(F)(F)F (stereo partly shown) [Example 1.32],6.27
13,CC(=O)N[C@@H](C)c1ccc(OC2CCN(c3ccc(C4CCC4)cc3)C2)cc1 (stereo partly shown) [Example 1.33],6.90
14,CCOc1ccc(N2CCC(Oc3ccc([C@H](C)NC(C)=O)cc3)C2)cc1 (stereo partly shown) [Example 1.2],6.70
15,CCOc1ccc(N2CCC(Oc3ccc([C@H](C)NC(C)=O)cc3)C2)c(F)c1 (stereo partly shown) [Example 1.19],6.62
16,CC(=O)N[C@@H](C)c1ccc(OC2CCN(c3ccc(F)c(F)c3)C2)cc1 (stereo partly shown) [Example 1.28],6.17
17,C[C@H](NC(=O)C1(C#N)CC1)c1ccc(O[C@@H]2CCN(c3ccc(OCC4CC4)cc3)C2)cc1 [Example 2.35],6.56
18,CC(=O)N[C@@H](C)c1ccc(OC2CCN(c3ccc(OCCCF)cc3)C2)cc1 (stereo partly shown) [Example 1.70],7.28

# More lines, in order of rising pIC50, values ahead:
row,pIC50,SMILES
1,5.53,CC(=O)N[C@@H](C)c1ccc(OC2CCN(c3cccc4c3OCCO4)C2)cc1 (stereo partly shown) [Example 1.20]
2,5.83,CC(=O)N[C@@H](C)c1ccc(OC2CCN(c3cc4c(cc3C#N)OCCO4)C2)cc1 (stereo partly shown) [Example 1.82]
3,6.00,C[C@H](NC(=O)c1cn(C)nc1C(F)F)c1ccc(O[C@@H]2CCN(c3ccc(OCC4CC4)cc3)C2)cc1 [Example 2.45]
4,6.04,CC(=O)N[C@@H](C)c1ccc(OC2CCN(c3cccc(F)c3C)C2)cc1 (stereo partly shown) [Example 1.31]
5,6.05,CC(=O)N[C@@H](C)c1ccc(OC2CCN(c3ccc(OCC4CCOC4)cc3)C2)cc1 (stereo partly shown) [Example 1.17]
6,6.10,CC(=O)N[C@@H](C)c1ccc(OC2CCN(c3ccc(Oc4ccncc4)cc3)C2)cc1 (stereo partly shown) [Example 1.66]
7,6.13,Cc1cc(OC2CC2)ccc1N1CC[C@@H](Oc2ccc([C@H](C)NC(=O)CO)cc2)C1 [Example 2.58]
8,6.15,CC(=O)N[C@@H](C)c1ccc(OC2CCN(c3ccc4c(c3)COC4)C2)cc1 (stereo partly shown) [Example 1.75]
9,6.22,CC(=O)N[C@@H](C)c1ccc(OC2CCN(c3ccc(C)c(Cl)c3)C2)cc1 (stereo partly shown) [Example 1.52]
10,6.32,COCCCOc1ccc(N2CCC(Oc3ccc([C@H](C)NC(C)=O)cc3)C2)c(F)c1 (stereo partly shown) [Example 1.37]
11,6.40,C[C@H](NC(=O)CO)c1ccc(O[C@@H]2CCN(c3ccc(OCC4CC4)cc3)C2)cc1 [Example 2.29]
12,6.40,CC(=O)N[C@@H](C)c1ccc(OC2CCN(c3ccc4c(c3)CCO4)C2)cc1 (stereo partly shown) [Example 1.26]
13,6.42,Cc1nc(N)sc1C(=O)N[C@@H](C)c1ccc(O[C@@H]2CCN(c3ccc(OCC4CC4)cc3)C2)cc1 [Example 2.40]
14,6.44,C[C@H](NC(=O)c1cc[nH]n1)c1ccc(O[C@@H]2CCN(c3ccc(OCC4CC4)cc3)C2)cc1 [Example 2.13]
15,6.53,CC(=O)NC(C)c1ccc(OC2CCN(c3ccc(OCC4CC4)cc3)C2)nc1 (stereo not shown) [Example 1.56]
16,6.57,CC(=O)N[C@@H](C)c1ccc(OC2CCN(c3ccc4c(c3)C(C)(C)CO4)C2)cc1 (stereo partly shown) [Example 1.101]
17,6.59,Cc1cc(OC2CC2)ccc1N1CC[C@@H](Oc2ccc([C@H](C)NC(=O)c3cncs3)cc2)C1 [Example 2.60]

row,pIC50,SMILES
1,6.61,CC(=O)N[C@@H](C)c1ccc(OC2CCN(c3ccc(O[C@H]4CCOC4)cc3)C2)cc1 (stereo partly shown) [Example 1.97]
2,6.64,CC(=O)N[C@@H](C)c1ccc(OC2CCN(c3ccc(OCC4CC4)cc3F)C2)cc1 (stereo partly shown) [Example 1.10]
3,6.65,CC(=O)N[C@@H](C)c1ccc(OC2CCN(c3ccc(OC(C)C)cc3C)C2)cc1 (stereo partly shown) [Example 1.85]
4,6.66,CC(=O)N[C@@H](C)c1ccc(OC2CCN(c3cc(C(F)F)ccc3F)C2)cc1 (stereo partly shown) [Example 1.94]
5,6.67,CC(=O)N[C@@H](C)c1ccc(OC2CCN(c3cccc(C)c3)C2)cc1 (stereo partly shown) [Example 1.55]
6,6.74,CC(=O)N[C@@H](C)c1ccc(O[C@H]2CCN(c3ccc(OCC4CC4)cc3)C2)cc1 [Example 1.48]
7,6.83,CC(=O)N[C@@H](C)c1ccc(OC2CCN(c3ccc(OC4CC4)cc3F)C2)cc1 (stereo partly shown) [Example 1.40]
8,6.97,C[C@H](NC(=O)N(C)C)c1ccc(OC2CCN(c3ccc(OC4CC4)cc3)C2)cc1 (stereo partly shown) [Example 1.64]
9,6.97,CCOc1ccc(N2CCC(Oc3ccc([C@H](C)NC(C)=O)cc3)C2)c(C)c1 (stereo partly shown) [Example 1.87]
10,7.10,C[C@H](NC(=O)C1(C)CC1)c1ccc(O[C@@H]2CCN(c3ccc(OCC4CC4)cc3)C2)cc1 [Example 2.10]
11,7.25,CC(C#N)C(=O)N[C@@H](C)c1ccc(O[C@@H]2CCN(c3ccc(OCC4CC4)cc3)C2)cc1 (stereo partly shown) [Example 2.23]
12,7.40,CC(=O)N[C@@H](C)c1ccc(OC2CCN(c3ccc(OCCC(F)F)cc3)C2)cc1 (stereo partly shown) [Example 1.90]
13,7.40,CC(=O)Nc1nc(C)c(C(=O)N[C@@H](C)c2ccc(OC3CCN(c4ccc(OCC5CC5)cc4)C3)cc2)s1 (stereo partly shown) [Example 2.1]
14,7.41,"C[C@H](NC(=O)C(F)(F)F)c1ccc(O[C@@H]2CCN(c3ccc(OCC4CC4)cc3)C2)cc1 [Example 6, N—((S)-1-(4-((R)-1-(4-(Cyclopropylmethoxy)phenyl)pyrrolidin-3-yloxy)phenyl)-ethyl)-2,2,2-trifluoroacetamide]"
15,7.52,C[C@H](NC(=O)c1cnco1)c1ccc(O[C@@H]2CCN(c3ccc(OCC4CC4)cc3)C2)cc1 [Example 2.22]
16,7.70,COCC(=O)Nc1nc(C)c(C(=O)N[C@@H](C)c2ccc(OC3CCN(c4ccc(OCC5CC5)cc4)C3)cc2)s1 (stereo partly shown) [Example 2.42]
